Experimental data: patent US10544134B2, “4-substituted coumarin derivatives and preparation methods and uses thereof” (SI CHUAN UNIVERSITY, priority 2015, dated 2020)
Where two headings read alike, the source gives them in different places.

Tests used:
Assay in all cases: Tumor cell proliferation inhibitory activity test in vitro (MTT)
[1] = tested on: colon carcinoma cell HCT116; format: cell-based, human; conditions: read-out: IC50 of compounds for tumor cells, Activity, HCT116
Source text: (§1) Human non-small cell lung cancer cell line NCI-H460, human small cell lung cancer cell line NCI-H446, human hepatocellular carcinoma cell strain HepG2, human colon carcinoma cell strain HCT116, human prostate cancer PC-3, human melanoma A375, colon carcinoma cell HCT-8, breast cancer cell MCF-7, ovarian cancer cell A2780s, drug-resistant ovarian cancer cell A2780/T, drug-resistant colon cancer cell HCT-8/T and doxorubicin-resistant breast cancer cell MCF-7/ADR are obtained from American Type Culture Collection (ATCC) and are cultured and preserved by the cell bank of State Key Laboratory of Biotherapy of Sichuan University. Above tumor cells are routinely cultured in DMEM culture medium containing 10% fetal bovine serum, 100 U·mL-1 penicillin and 100 mg·L−1 streptomycin, and in an incubator at 37° C. and with saturated humidity and 5% CO2 concentration.
(§2) Fill diluted cell suspension in the 96-well plate with 1000-10000 cells per well and incubate it in CO2 incubator overnight.
(§3) Replace with new medium containing various concentrations of compounds to be tested for the test group and replace with fresh medium with equal volume for the control group, each group is arranged with 5 parallel wells and incubated in an incubator at 37° C. and with 5% CO2 concentration.
(§4) Discard the supernatant after 72 hours, add 200 μL freshly prepared serum-free medium containing 0.2 mg/mL MTT into each well, continue to incubate at 37° C. for 1-4 hours, then stop incubation, carefully remove the culture supernatant in the wells and add 200 uL DMSO (dimethyl sulfoxide), oscillate with a miniature ultrasonic oscillator for 15-20 minutes to make the crystal fully dissolved and mixed. Determine OD values using a microplate reader at 570 nm with a reference wavelength of 450 nm.
(§5) Draw curves based on the growth inhibition rate for tumor cells of the same sample with different concentrations to get dose-response curve, so as to calculate IC50. Repeat each test for 3 times, measure IC50 (μM) or nanomolor concentration (nM) of compounds in different tumor cells.

[2] = tested on: hepatocellular carcinoma cell HEPG2; format: cell-based, human; conditions: read-out: IC50 of compounds for tumor cells, Activity, HEPG2
Source text: as §1, §2, §3, §4, §5

[3] = tested on: melanoma A375; format: cell-based, human; conditions: read-out: IC50 of compounds for tumor cells, Activity, A375
Source text: as §1, §2, §3, §4, §5

[4] = tested on: non-small cell lung cancer cell line NCI-H460; format: cell-based, human; conditions: read-out: IC50 of compounds for tumor cells, Activity, H460
Source text: as §1, §2, §3, §4, §5

[5] = tested on: prostate cancer PC-3; format: cell-based, human; conditions: 72 hours, read-out: IC50 of compounds for tumor cells, Activity, PC-3
Source text: as §1, §2, §3, §4, §5

[6] = tested on: breast cancer cell MCF-7; format: cell-based; conditions: read-out: IC50 of compounds for tumor cells, Activity, MCF-7
Source text: as §1, §2, §3, §4, §5

[7] = Homo sapiens, HCT-116, 72 hours
[8] = Homo sapiens, NCI-H460, 72 hours

Compound	IC50 ([1]; 72 hours) [µM]	IC50 ([2]; 72 hours) [µM]	IC50 ([3]; 72 hours) [µM]	IC50 ([4]; 72 hours) [µM]	IC50 [5] [µM]	IC50 ([6]; 72 hours) [µM]	IC50 [1, 7] [µM]	IC50 ([2]; Homo sapiens, HepG2, 72 hours) [µM]	IC50 ([3]; Homo sapiens, A-375, 72 hours) [µM]	IC50 [4, 8] [µM]	IC50 ([5]; Homo sapiens) [µM]	IC50 ([6]; Homo sapiens, MCF7, 72 hours) [µM]
COc1ccc(N(C)c2cc(=O)oc3ccccc23)cc1OCCN1CCCCC1 [COUM-51, 4-(N-methyl-N-(4-methoxy-3-(2-piperidinoethoxy)-benzene)-amino) Coumarin]	> 5	> 5	> 5	> 5	> 5	> 5						
COc1ccc(N(C)c2cc(=O)oc3ccccc23)cc1NC(=O)CCC(=O)O [COUM-98, 4-(N-methyl-N-(4-methoxy-3-(1-carboxylic acid-propanecarbonylamino-)phenyl)-amino) Coumarin]							0.1 to 5	0.1 to 5	0.1 to 5	0.1 to 5	0.1 to 5	0.1 to 5
COc1ccc(N(C)c2cc(=O)oc3ccccc23)cc1NC(=O)C1CCCC1 [COUM-97, 4-(N-methyl-N-(4-methoxy-3-(cyclopentylcarbonylamino)phenyl)-amino) Coumarin]							0.1 to 5	0.1 to 5	0.1 to 5	0.1 to 5	0.1 to 5	0.1 to 5
CCOC(=O)c1cccc(-c2ccc(-c3cc(=O)oc4cc(OC)ccc34)s2)c1 [COUM-13, 4-(5-(3-ethoxycarbonylbenzene)thiophene-2-yl)-7-methoxyl-coumarin]							> 5	> 5	> 5	> 5	> 5	> 5
COc1ccc2c(-c3ccc(-c4ccc(Cl)cc4)o3)cc(=O)oc2c1 [COUM-28, 4-(5-(4-chlorobenzene)furan-2-yl)-7-methoxyl-coumarin]							> 5	> 5	> 5	> 5	> 5	> 5
COc1ccc(N(C)c2cc(=O)oc3ccccc23)cc1OS(=O)(=O)Cc1ccc(C)cc1 [COUM-55, 4-(N-methyl-N-(4-methoxy-3-(4-methylbenzene) methanesulfonate-benzene)-amino) Coumarin]	0.1 to 5	0.1 to 5	0.1 to 5	0.1 to 5	0.1 to 5	0.1 to 5						
COc1ccc2c(-c3ccc(-c4cc(OC)c(OC)c(OC)c4)o3)cc(=O)oc2c1 [COUM-23, 4-(5-(3,4,5-trimethoxybenzene)furan-2-yl)-7-methoxyl-coumarin]							> 5	> 5	> 5	> 5	> 5	> 5
COc1ccc(N(C)c2cc(=O)oc3ccccc23)cc1OCCN1CCOCC1 [COUM-49, 4-(N-methyl-N-(4-methoxy-3-(2-morpholinoethoxy)-benzene)-amino) Coumarin]	0.1 to 5	0.1 to 5	0.1 to 5	0.1 to 5	0.1 to 5	0.1 to 5						
COC(=O)CCCCCCCCCCOc1cc(N(C)c2cc(=O)oc3ccccc23)ccc1OC [COUM-94, 4-(N-methyl-N-(4-methoxy-3-(1-methyl ester-decane-oxy)phenyl)-amino) Coumarin]							> 5	> 5	> 5	> 5	> 5	> 5
CCOC(=O)COc1cc(N(C)c2cc(=O)oc3ccccc23)ccc1OC [COUM-45, 4-(N-methyl-N-(4-methoxy-3-(2-ethoxy-2-carbonylethoxy)-benzene)-amino) coumarin]							0.01 to 0.1	0.01 to 0.1	0.01 to 0.1	0.01 to 0.1	0.01 to 0.1	0.01 to 0.1
COc1cccc(-c2ccc(-c3cc(=O)oc4ccccc34)s2)c1 [COUM-29, 4-(5-(3-methoxyphenyl)thiophene-2-yl)-coumarin]							> 5	> 5	> 5	> 5	> 5	> 5
COc1ccc(N(C)c2cc(=O)oc3ccccc23)cc1OC(=O)C(CCSC)NC(=O)OC(C)(C)C (stereo not drawn) [COUM-86, 4-(N-methyl-N-(4-methoxy-3-(Boc-methionine)benzene)amino) Coumarin]							0.1 to 5	0.1 to 5	0.1 to 5	0.1 to 5	0.1 to 5	0.1 to 5
COc1ccc2c(-c3ccc(-c4ccccc4OC)o3)cc(=O)oc2c1 [COUM-26, 4-(5-(2-methoxybenzene)furan-2-yl)-7-methoxyl-coumarin]							> 5	> 5	> 5	> 5	> 5	> 5
4-(N-methyl-N-(4-methoxy-3-(4-fluorobenzene) methanesulfonate-benzene)-amino) Coumarin [COUM-56]	0.1 to 5	0.1 to 5	0.1 to 5	0.1 to 5	0.1 to 5	0.1 to 5						
COc1ccc2c(-c3ccc(-c4ccccc4OC)s3)cc(=O)oc2c1 [COUM-12, 4-(5-(2-methoxybenzene)thiophene-2-yl)-7-methoxyl-coumarin]							> 5	> 5	> 5	> 5	> 5	> 5
CCOc1cc(N(C)c2cc(=O)oc3ccccc23)ccc1OC [COUM-58, 4-(N-methyl-N-(4-methoxy-3-ethoxy-benzene)-amino) Coumarin]	> 5	> 5	> 5	> 5	> 5	> 5						
COc1ccc2c(-c3ccc(-c4ccccc4Cl)s3)cc(=O)oc2c1 [COUM-34, 4-(5-(2-chlorobenzene)thiophene-2-yl)-7-methoxyl-coumarin]							> 5	> 5	> 5	> 5	> 5	> 5
COc1ccc2c(-c3ccc(-c4ccc(C)cc4)o3)cc(=O)oc2c1 [COUM-24, 4-(5-(4-methylbenzene)furan-2-yl)-7-methoxyl-coumarin]							> 5	> 5	> 5	> 5	> 5	> 5
COc1cc(-c2ccc(-c3cc(=O)oc4ccccc34)o2)cc(OC)c1OC [COUM-20, 4-(5-(3,4,5-trimethoxyphenyl)furan-2-yl)-coumarin]							> 5	> 5	> 5	> 5	> 5	> 5
CS(=O)(=O)c1ccc(-c2ccc(-c3cc(=O)oc4ccccc34)o2)cc1 [COUM-16, 4-(5-(4-methylsulfonylphenyl)furan-2-yl)-coumarin]							> 5	> 5	> 5	> 5	> 5	> 5
CCN(CC)c1ccc2c(N(C)c3ccc(OC)cc3)cc(=O)oc2c1 [COUM-41, 4-(N-methyl-N-(4-methoxybenzene)-amino)-7-diethylaminocoumarin]							0.01 to 0.1	0.01 to 0.1	0.01 to 0.1	0.01 to 0.1	0.01 to 0.1	0.01 to 0.1
COc1ccc2c(N(C)c3cc(OC)c(OC)c(OC)c3)cc(=O)oc2c1 [COUM-44]							0.01 to 0.1	0.01 to 0.1	0.01 to 0.1	0.01 to 0.1	0.01 to 0.1	0.01 to 0.1
4-(N-methyl-N-(4-methoxy-3-(furan-2-yl-methoxycarbonyl)-benzene)-amino) Coumarin [COUM-61]	0.1 to 5	0.1 to 5	0.1 to 5	0.1 to 5	0.1 to 5	0.1 to 5						
COc1ccccc1-c1ccc(-c2cc(=O)oc3ccccc23)o1 [COUM-18, 4-(5-(2-methoxyphenyl)furan-2-yl)-coumarin]							> 5	> 5	> 5	> 5	> 5	> 5
